Assay results from ChEMBL document CHEMBL1914387, “Combining symmetry elements results in potent naphthyridinone (NTD) HIV-1 integrase inhibitors” (Bioorg Med Chem Lett, 2011).

How the values were obtained:
[1] = test system: Human immunodeficiency virus 1; test: Antiviral activity against pseudo HIV1 infected in human 293T cells after 2 days by luciferase reporter gene assay; assay type: functional, organism-based; settings: Human immunodeficiency virus 1, HEK-293T, 48 h
[2] = target: Human immunodeficiency virus type 1 integrase (Human immunodeficiency virus 1, UniProt Q7ZJM1); test: Inhibition of HIV1 integrase strand transfer by biochemical assay
Sequence of Human immunodeficiency virus type 1 integrase (Q7ZJM1 whole entry): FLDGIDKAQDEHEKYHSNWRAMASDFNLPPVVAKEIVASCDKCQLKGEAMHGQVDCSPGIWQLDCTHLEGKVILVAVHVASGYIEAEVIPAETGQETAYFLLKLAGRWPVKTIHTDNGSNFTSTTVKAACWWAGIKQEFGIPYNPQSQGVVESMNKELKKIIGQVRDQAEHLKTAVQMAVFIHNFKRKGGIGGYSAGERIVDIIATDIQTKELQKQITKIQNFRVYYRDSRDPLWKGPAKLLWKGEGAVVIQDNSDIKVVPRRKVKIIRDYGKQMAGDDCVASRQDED

[3] = Selectivity index, ratio of CC50 for human MT4 cells to EC50 for HIV13B; assay type: toxicity, cell-based; settings: read-out: Ratio CC50/EC50
[4] = test system: Human immunodeficiency virus 1; test: Antiviral activity against pseudo HIV1 infected in human 293T cells after 2 days by luciferase reporter gene assay in presence of human serum albumin; assay type: functional, organism-based; settings: Human immunodeficiency virus 1, HEK-293T, 48 h
[5] = test system: Human immunodeficiency virus 1; test: Antiviral activity against HIV1 3B infected in human MT4 cells assessed as inhibition of viral replication after 4-5 days by bioluminescence assay; assay type: functional, organism-based; settings: Human immunodeficiency virus 1, 3B
[6] = Therapeutic index, ratio of CC50 for human 293T cells to EC50 for HIV1; assay type: cell-based; settings: read-out: Ratio CC50/EC50
[7] = test system: Human immunodeficiency virus 1; test: Ratio of EC50 for pseudo HIV1 infected in human 293T cells in presence of human serum albumin to EC50 for pseudo HIV1 infected in human 293T cells; assay type: functional
[8] = test system: Human immunodeficiency virus 1; test: Antiviral activity against HIV1 Ba-L infected in human PBMC cells assessed as inhibition of viral replication after 7 days by [methyl-3H]dTTP incorporation assay; assay type: functional, organism-based; settings: Human immunodeficiency virus 1, Ba-L, 168 h

| SMILES | EC50 [1] [nM] | IC50 [2] [nM] | selectivity ratio [3] | EC50 [4] [nM] | EC50 [5] [nM] | selectivity ratio [6] | Ratio EC50 [7] | EC50 [8] [nM] |
| --- | --- | --- | --- | --- | --- | --- | --- | --- |
| O=C(NCc1ccc(F)cc1)c1c(O)c2ncc(Cc3ccc(F)cc3)cc2n(CC(=O)N2CCOCC2)c1=O | 3 | 8 | 347 | 45 | 15 | 2880 | – | – |
| COc1ccc(CNC(=O)c2c(O)c3ncc(Cc4ccc(F)cc4)cc3[nH]c2=O)cc1OC | 21 | 8 | – | 1100 | – | 680 | – | – |
| O=C(NCc1ccc(F)cc1)c1c(O)c2ncc(Cc3ccccc3)cc2n(CC2CC2)c1=O | 30 | 34 | – | 730 | – | 465 | – | – |
| CN(C)C(=O)Cn1c(=O)c(C(=O)NCc2ccc(F)cc2)c(O)c2ncc(Cc3ccc(F)cc3)cc21 | 10 | 4 | – | 130 | – | 1150 | 10 | – |
| O=C(NCc1ccc(F)cc1)c1c(O)c2ncc(Cc3ccc(F)cc3)cc2[nH]c1=O | 8 | 6 | – | 280 | – | 1730 | – | – |
| COc1ccc(CNC(=O)c2c(O)c3ncc(Cc4ccc(F)cc4)cc3[nH]c2=O)cc1 | 7 | 7 | – | 440 | – | 1730 | – | – |
| O=C(NCc1ccc(F)cc1)c1c(O)c2ncccc2[nH]c1=O | 110 | 13 | – | – | – | 87 | – | – |
| Cn1c(=O)c(C(=O)NCc2ccc(F)cc2)c(O)c2ncc(Cc3ccc(F)cc3)cc21 | 8 | 17 | 453 | 530 | 66 | 1710 | – | – |
| CC(C)n1c(=O)c(C(=O)NCc2ccc(F)cc2)c(O)c2ncccc21 | 400 | 1 | – | – | – | 30 | – | – |
| O=C(NCc1ccc(F)cc1C(F)(F)F)c1c(O)c2ncc(Cc3ccccc3)cc2[nH]c1=O | 39 | 32 | – | 480 | – | 90 | – | – |
| O=C(NCc1ccc(F)cc1)c1c(O)c2ncc(Cc3ccccc3)cc2[nH]c1=O | 19 | 13 | 108 | 430 | 37 | 711 | – | – |
| O=C(NCc1ccc(F)cc1)c1c(O)c2ncc(Cc3ccc(F)cc3)cc2n(CCN2CCCC2=O)c1=O | 3 | 14 | > 400 | 140 | 20 | 5600 | – | 11 |
| CS(=O)(=O)c1ccc(Cn2c(=O)c(C(=O)NCc3ccc(F)cc3)c(O)c3ncc(Cc4ccccc4)cc32)cc1 | 9 | 28 | – | 230 | – | 1430 | 25 | – |
| CCCn1c(=O)c(C(=O)NCc2ccc(F)cc2)c(O)c2ncc(Cc3ccccc3)cc21 | 70 | 18 | – | 640 | – | 99 | – | – |
| O=C(NCc1ccc(F)cc1)c1c(O)c2ncccc2n(C2CCCC2)c1=O | 110 | 6 | – | 1540 | – | 79 | 14 | – |
| Nc1ccc(Cn2c(=O)c(C(=O)NCc3ccc(F)cc3)c(O)c3ncc(Cc4ccccc4)cc32)cc1 | 12 | 28 | – | 140 | – | 1130 | 12 | – |
| O=C(NCc1ccc(F)cc1Cl)c1c(O)c2ncc(Cc3ccccc3)cc2[nH]c1=O | 120 | 35 | – | – | – | 117 | – | – |
| O=C(NCc1ccc(F)cc1)c1c(O)c2ncc(Cc3ccc(F)cc3)cc2n(CC(=O)N2CCCCC2)c1=O | 26 | 19 | – | 220 | – | 171 | 10 | – |
| CC(NC(=O)c1c(O)c2ncc(Cc3ccccc3)cc2[nH]c1=O)c1ccccc1 (centres undefined) | 65 | 20 | – | 360 | – | 79 | – | – |
| COc1cccc(CNC(=O)c2c(O)c3ncc(Cc4ccc(F)cc4)cc3[nH]c2=O)c1 | 13 | 10 | – | 460 | – | 1050 | – | – |
| COc1ccccc1CNC(=O)c1c(O)c2ncc(Cc3ccc(F)cc3)cc2[nH]c1=O | 9 | 6 | – | 330 | – | 1540 | – | – |
| O=C(NCc1ccc(F)cc1)c1c(O)c2ncc(Cc3ccccc3)cc2n(CCN2CCCC2=O)c1=O | 8 | 32 | – | 290 | – | 1770 | – | – |
